The text below walks through data of patent EP0291663A2, “Tert.-butyl amino-3-(phenyl-2'-phenoxy)-1-propanol-2 for the control of heart arrhythmia” (priority 1987, dated 1988).

Molecules are shown by their SMILES. Structures can show the parent of a compound that is named as a salt. A value given as a limit tells only on which side of the number the result lay.

One data set relates to Hunde-Purkinye Fasern. Put plainly: Electrophysiology on isolated dog Purkinje fibres (Vmax, action potential duration). Format: cell-based, Hund. Particulars: for Rate Factor von Vmax: (% of control Vmax at cycle length 2000 mSek.)/(% of control Vmax at cycle length 500 mSek.) at C20Vmax. The text has this:
(§1) Überraschenderweise wurde gefunden, daß das tert.-Butylamino-3-(phenyl-2ʹ-phenoxy)-1-propanol 2 ("Bipranol") der Formel [drawing 1] und seine Salze mit Säuren keine β-sympatholytische Wirkung, sondern eine starke antiarrhythmische Wirkung besitzen. Die elektrophysiologischen und hämodynamischen Wirkungen wurden in vitro an zwei verschiedenen isolierten Herzpräparaten und in vivo (Hund) experimentell untersucht. In Tabelle I sind Ergebnisse pharmakologischer Untersuchungen mit Diprafenon, Propafenon und Bipranol zusammengefaßt.
(§2) C20 Vmax: Konzentration, die Vmax bei einer Zykluslänge von 1000 mSek. um 20 % verringert. C20 CF: Konzentration, die die Kontraktion des Papillarmuskels um 20 % verringert. Rate Factor von Vmax: (% des Kontrollwertes Vmax bei einer Zykluslänge von 2000 mSek.)/(% des Kontrollwertes Vmax bei einer Zykluslänge von 500 mSek.) bei C20Vmax. C20APD95: Die Konzentration, die das APD95 des normalen Aktionspotentials um 20 % verlängert. Sf : Sicherheitsfaktor, errechnet als Rate Factor von Vmax × (C20 CF/C20 Vmax).
(§3) In in vitro-Experimenten an isolierten Herzpräparaten lag die leistungsverzögernde und damit antiarrhythmische Wirkung (C20 Vmax) bei einer Dosis von 2,2 µMol Bipranol. Diese Dosierung entspricht einer antiarrhythmischen wirksamen Dosis von etwa 3 mg/kg bei in vivo Versuchen an Hunden. […] Diese Konzentration ist ungefähr 14 mal höher als für eine antiarrhythmische Wirkung gebraucht wird.

Data set [1] has as its system Meerschweinchen-Papillarmuskel. The data set can be described thus: Contraction of isolated guinea pig papillary muscle (safety factor, negative inotropy). Format: cell-based. Particulars: for Sf (Sicherheitsfaktor): Rate Factor von Vmax × (C20 CF/C20 Vmax).
Source text: as §1, §2

The test system of a further data set is ventrikuläre Arrhythmien. It is filed as in vivo, Hund. Particulars: dog. From the text: Dies wird auch durch in vivo Experimente bestätigt. Die antiarrhythmische Wirksamkeit der Verbindung wurde an Hunden nach H. Glücker et al., Arzneim.Forsch. (Drug Ros.) Bd. 35 (II), 9 (1985) S.1387-1393 geprüft. Die […] wurde mindestens 2 Stunden lang occludiert. Nach dem Auftreten konstanter […] die Verbindungen intravenös injiziert.

The next data set has as its system β-Rezeptor. Format: in vivo, Hund. The text has this:
Als Parameter zur Bestimmung der β-Rezeptor-blockierenden Wirkung am narkotisierten Hund dienten dP/dt als Maß für die Kontraktionskraft des Herzens, sowie cardiac output (Herzzeitvolumen). […] Im Gegensatz wirken β-Blocker immer negativ-inotrop. […] Die Beobachtungen bei dieser Dosis sind wahrscheinlich Folge einer nicht spezifischen toxischen Wirkung und beruhen nicht auf einer β-sympatolytischen Wirkung.

Data set [2] has as its system Meerschweinchen-Vorhofmuskel. The data set can be described thus: Antagonism of the positive inotropic effect of adrenaline on isolated guinea pig atrial muscle. Format: cell-based. Particulars: highest test concentration 30 µMol. As for the experimental part:
as §3

A short description of another data set: in vivo. Particulars: rat.
The mark [3] stands for this setting: anaesthetised dog, up to 30 mg/kg.
The mark [4] stands for this setting: concentration that prolongs APD95 of the normal action potential by 20 %.

Consider `CC(C)(C)NCC(O)COc1ccccc1-c1ccccc1` (centres unmarked) [Bipranol, tert.-Butylamino-3-(phenyl-2ʹ-phenoxy)-1-propanol-2], for which the “Rate Factor von Vmax” value in the data set on Hunde-Purkinye Fasern was 5. Also, the IC20 in the data set with Hunde-Purkinye Fasern (Canis lupus familiaris, purkinje, concentration that reduces Vmax by 20 % at cycle length 1000 mSek., isolated heart preparations, read-out: C20 Vmax) amounted to 2200 nM. In the data set on Hunde-Purkinye Fasern (purkinje, concentration that prolongs APD95 of the normal action potential by 20 %, read-out: C20APD95), the EC20 came out at 7.2 µM. In data set [1], the “negativ-inotrope Nebenwirkung” value is listed as “keine nennenswerte negativ-inotrope Nebenwirkung” and the “Sf (Sicherheitsfaktor)” value is given as 9,09. Further, the “Reduktion der ventrikulären Extrazystolen” value in the data set on ventrikuläre Arrhythmien (i.v., 1,6 mg/kg followed by 50 µg/kg/min) is given as over 90%. In the data set with β-Rezeptor (setting [3]), the “cardiac output (Herzzeitvolumen)” value is “nicht beeinflußt” and the “dP/dt (Kontraktionskraft des Herzens)” value is “keine negativ-inotrope Wirkung”. Also, in the data set on β-Rezeptor (in vivo, iv, 30 mg/kg), the Mortality entry was “starben alle Hunde”. In data set [2], the “Abschwächung der positiv-inotropen Wirkung von 1 µMol Adrenalin” value was “geringe Abschwächung”.

Turning to `CC(C)(C)NCC(O)COc1ccccc1-c1ccccc1` (centres unmarked) [Bipranol HCl, tert.-Butylamino-3-(phenyl-2ʹ-phenoxy)-1-propanol-2], the LD50 (usually the dose at which mortality reaches 50%) in “in vivo” (Ratte (iv)) is 11 mg/kg; in the data set “in vivo” (Ratte (oral)), 571 mg/kg.

As to `O=C(NCC1CCCCN1)c1cc(OCC(F)(F)F)ccc1OCC(F)(F)F` (centres unmarked) [Flecainid, reference compound], the “therapeutische Dosierung” value with ventrikuläre Arrhythmien (i.v., followed by 50 µg/kg/min) was 2,4 mg/kg.

Turning to `CCCNCC(O)COc1ccccc1C(=O)CCc1ccccc1` (centres unmarked) [Propafenon], the “Rate Factor von Vmax” value in the data set on Hunde-Purkinye Fasern is 1,08. In addition, in the data set with Hunde-Purkinye Fasern (setting [4]), the C20APD95 result is “nicht erreicht”. The “Sf (Sicherheitsfaktor)” value in data set [1] was 1,55.

Regarding `CCC(C)(C)NCC(O)COc1ccccc1C(=O)CCc1ccccc1` (centres unmarked) [Diprafenon], the “Rate Factor von Vmax” value in the data set with Hunde-Purkinye Fasern is on record as 1,19. The C20APD95 result with Hunde-Purkinye Fasern (setting [4]) is given as “nicht erreicht”. In data set [1], the “negativ-inotrope Nebenwirkung” value was “deutlich negativer inotroper Effekt” and the “Sf (Sicherheitsfaktor)” value is on record as 4,86.
